From patent US20240109868A1, “EP300/CBP MODULATOR, PREPARATION METHOD THEREFOR AND USE THEREOF” (Miracure Biotechnology Limited, priority 2022, published 2024)

Columns and labels:
[1] = system: vCap Cell; assay: vCap cell growth inhibition, CellTiter-Glo, 72 h; format: cell-based; details: Homo sapiens, VCaP, 72 h, vCap cells, 72 h culture
Experimental: (§1) 22RV1 or vCap cells were cultured in RPMI-1640 medium (10% fetal bovine serum and 100 units (per mL) of penicillin/streptomycin dual antibody were added to RPMI-1640) in a 37° C., 5% CO2 cell incubator. Cells at the logarithmic growth phase were inoculated onto a 96-well cell culture plate at 5×10^3 cells/100 μL/well and cultured overnight. Solutions of different concentrations of an active compound in DMSO were added, with the final concentration being 0.5% DMSO. The positive control was 1% TweeN2O, and the negative control was 0.5% DMSO. After 72 h of culture, an equal volume of CellTiter-Glo was added to each well, and the mixtures were mixed homogeneously by shaking for 2 min. The plate was let stand at room temperature for 10 min, and fluorescence signal values were read using a microplate reader. Data were analyzed using Prism 7.0 and graphs were generated. The values are shown as mean f SEM (N=2). […] The X-axis represents compound concentration (μM), and the Y-axis represents % inhibition.

[2] = system: 22Rv1 Cell; assay: 22RV1 cell growth inhibition, CellTiter-Glo, 72 h; format: cell-based; details: Homo sapiens, 22Rv1, 72 h, 22RV1 cells, 72 h culture
Experimental: as §1

SMILES	IC50 [1] [nM]	IC50 [2] [nM]
CNC(=O)N1Cc2cc(C3CCN(C(=O)c4ccccc4)CC3)cc(N3CCCc4cc(-c5cnn(C)c5)c(C(F)F)cc43)c2C1 [Compound M001163]	> 1000	> 1000
Cn1cc(-c2cc3c(cc2C(F)F)N(c2cccc4c2NC(=O)CCC4)CCC3)cn1 [Compound M001236, 9-[7-(difluoromethyl)-6-(1-methylpyrazol-4-yl)-3,4-dihydro-2H-quinolin-1-yl]-1,3,4,5-tetrahydro-1-benzazepin-2-one]	> 1000	> 1000
CNC(=O)N1CCc2cc(C3CCN(C4CCC(=O)NC4=O)C(=O)C3)cc(N3CCCc4cc(-c5cnn(C)c5)c(C(F)F)cc43)c2C1 (centres unmarked) [Compound M001287]	–	> 1000
CNC(=O)N1CCc2cc(N3CCSCC3)cc(N3CCCc4cc(-c5cnn(C)c5)c(C(F)F)cc43)c2C1 [Compound M001019]	> 1000	> 1000
CC(=O)N1CCc2cccc(N3CCCc4cc(-c5cnn(C)c5)c(C(F)F)cc43)c2C1 [Compound M001207]	> 1000	> 1000
CC(=O)N1Cc2cc(C3CCCNC3=O)cc(N3CCCc4cc(-c5cnn(C)c5)c(C(F)F)cc43)c2C1 (centres unmarked) [Compound M001258]	–	> 1000
CNC(=O)N1CCc2cc(C3CCN(CC(F)F)C(=O)C3)cc(N3CCCc4cc(-c5cnn(C)c5)c(C(F)F)cc43)c2C1 (centres unmarked) [Compound M001255]	–	< 1000
CC(=O)N1Cc2cc(C3CCC(=O)N(CCF)C3)cc(N3CCCc4cc(-c5cnn(C)c5)c(C(F)F)cc43)c2C1 (centres unmarked) [Compound M001257]	–	> 1000
CC(=O)N1Cc2cc(C3CCC(=O)N(C)C3)cc(N3CCCc4cc(-c5cn(C)nc5C(=O)N(C)C)c(C(F)F)cc43)c2C1 (centres unmarked) [Compound M001227]	–	> 1000
CC(=O)N1Cc2cc([C@H]3CC[C@H](NS(C)(=O)=O)CC3)cc(N3CCCc4cc(-c5cnn(C)c5)c(C(F)F)cc43)c2C1 [Compound M001309]	–	< 1000
CC(=O)N1Cc2cc(C3COC(=O)N(C)C3)cc(N3CCCc4cc(-c5cnn(C)c5)c(C(F)F)cc43)c2C1 (centres unmarked) [Compound M001238]	–	> 1000
CC(=O)N1Cc2cc(C3CCC(=O)N(C)C3)cc(Nc3cc(C(F)F)c(-c4cnn(C)c4)cc3F)c2C1 (centres unmarked) [Compound M001233]	–	> 1000
CC(=O)N1Cc2cc(C3CCN(CCF)C(=O)C3)cc(N3CCCc4cc(-c5cnn(C)c5)c(C(F)F)cc43)c2C1 (centres unmarked) [Compound M001250]	–	> 1000
CNC(=O)N1CCc2cc(C3CCN(CC(C)O)C(=O)C3)cc(Nc3cc(C(F)F)c(-c4cnn(C)c4)cc3F)c2C1 (centres unmarked) [Compound M001240]	–	> 1000
CCN1CCN(c2cc3c(c(N4CCCc5cc(-c6cnn(C)c6)c(C(F)F)cc54)c2)CN(C(C)=O)C3)CC1=O [Compound M001262]	–	> 1000
CNC(=O)N1CCc2cc(-c3ccn(C4CCC(=O)NC4=O)c(=O)c3)cc(N3CCCc4cc(-c5cnn(C)c5)c(C(F)F)cc43)c2C1 (centres unmarked) [Compound M001300, 8-(7-(difluoromethyl)-6-(1-methyl-1H-pyrazol-4-yl)-3,4-dihydroquinolin-1(2H)-yl)-6-(1-(2,6-dioxopiperidin-3-yl)-2-oxo-1,2-dihydropyridin-4-yl)-N-methyl-3,4-dihydroisoquinoline-2(1H)-carboxamide]	–	> 1000
CC(=O)N1Cc2cc(C3CCN(CCO)C(=O)C3)cc(N3CCCc4cc(-c5cnn(C)c5)c(C(F)F)cc43)c2C1 (centres unmarked) [Compound M001247]	–	> 1000
CC(=O)N1Cc2cc(C3CCN(CC(F)F)C(=O)C3)cc(N3CCCc4cc(-c5cnn(C)c5)c(C(F)F)cc43)c2C1 (centres unmarked) [Compound M001254]	–	< 1000
CC(=O)N1Cc2cc(C3CCN(CC(C)O)C(=O)C3)cc(Nc3cc(C(F)F)c(-c4cnn(C)c4)cc3F)c2C1 (centres unmarked) [Compound M001241]	–	> 1000
CC(=O)N1Cc2cc(C3CCC(=O)N(CC(C)O)C3)cc(N3CCCc4cc(-c5cnn(C)c5)c(C(F)F)cc43)c2C1 (centres unmarked) [Compound M001226]	–	> 1000
CC(=O)N1Cc2cc([C@H]3CC[C@@H](NS(C)(=O)=O)CC3)cc(N3CCCc4cc(-c5cnn(C)c5)c(C(F)F)cc43)c2C1 [Compound M001305]	–	< 1000
CNC(=O)N1CCc2cc(C3CCC(=O)N(C)C3)cc(Nc3cc(C(F)F)c(-c4cnn(C)c4)cc3F)c2C1 (centres unmarked) [Compound M001232, 8-((5-(difluoromethyl)-2-fluoro-4-(1-methyl-1H-pyrazol-4-yl)phenyl)amino)-N-methyl-6-(1-methyl-6-oxopiperidin-3-yl)-3,4-dihydroisoquinoline-2(1H)-carboxamide]	–	> 1000

More lines, now with the values ahead:

IC50 [1] [nM]	IC50 [2] [nM]	SMILES
> 1000	> 1000	CNC(=O)N1CCc2cc(N3CCOCC3)cc(N3CCCc4cc(-c5cnn(C)c5)c(C(F)F)cc43)c2C1 [Compound M001014, 8-(7-(difluoromethyl)-6-(1-methyl-1H-pyrazol-4-yl)-3,4-dihydroquinolin-1(2H)-yl)-N-methyl-6-morpholine-3,4-dihydroisoquinoline-2(1H)-carboxamide]
> 1000	> 1000	CC(=O)N1Cc2cc(C3CCNCC3)cc(N3CCCc4cc(-c5cnn(C)c5)c(C(F)F)cc43)c2C1 [Compound M001040]
< 1000	< 1000	CNC(=O)N1CCc2cc(C3CCC(=O)N(C)C3)cc(N3CCCc4cc(-c5cnn(C)c5)c(C(F)F)cc43)c2C1 (centres unmarked) [Compound M001170]
–	> 1000	CNC(=O)N1CCc2cc([C@H]3CC[C@H](N)CC3)cc(N3CCCc4cc(-c5cnn(C)c5)c(C(F)F)cc43)c2C1 [Compound M001319]
–	> 1000	CNC(=O)N1CCc2cc([C@H]3CC[C@@H](N)CC3)cc(N3CCCc4cc(-c5cnn(C)c5)c(C(F)F)cc43)c2C1 [Compound M001318]
< 1000	< 1000	CC(=O)N1Cc2cc(C3CCC4(CC3)OCCO4)cc(N3CCCc4cc(-c5cnn(C)c5)c(C(F)F)cc43)c2C1 [Compound M001101]
> 1000	> 1000	CC(=O)N1Cc2cc(C3CCC(F)(F)CC3)cc(N3CCCc4cc(-c5cnn(C)c5)c(C(F)F)cc43)c2C1 [Compound M001066]
> 1000	> 1000	CNC(=O)N1CCc2cc(C3CCN(CC(F)F)CC3)cc(N3CCCc4cc(-c5cnn(C)c5)c(C(F)F)cc43)c2C1 [Compound M001055]
> 1000	> 1000	CC(=O)N1Cc2cc(C3CCN(C4COC4)CC3)cc(N3CCCc4cc(-c5cnn(C)c5)c(C(F)F)cc43)c2C1 [Compound M001056]
–	> 1000	CNC1CCC(c2cc3c(c(N4CCCc5cc(-c6cnn(C)c6)c(C(F)F)cc54)c2)CN(C(C)=O)C3)CC1 (centres unmarked) [Compound M001302]
–	> 1000	CNC(=O)N1CCc2cc(C3CCC(NS(C)(=O)=O)CC3)cc(N3CCCc4cc(-c5cnn(C)c5)c(C(F)F)cc43)c2C1 (centres unmarked) [Compound M001314]
–	> 1000	CC(=O)N1Cc2cc(C3CCN(O)CC3)cc(N3CCCc4cc(-c5cnn(C)c5)c(C(F)F)cc43)c2C1 [Compound M001277]
–	> 1000	CNC(=O)N1CCc2cc([C@H]3CC[C@@H](NC(C)=O)CC3)cc(N3CCCc4cc(-c5cnn(C)c5)c(C(F)F)cc43)c2C1 [Compound M001316]
–	> 1000	CNC(=O)N1CCc2cc(C3CCC(=O)N(CCF)C3)cc(N3CCCc4cc(-c5cnn(C)c5)c(C(F)F)cc43)c2C1 (centres unmarked) [Compound M001256]
–	> 1000	CNC(=O)N1CCc2cc(C3CCN(O)CC3)cc(N3CCCc4cc(-c5cnn(C)c5)c(C(F)F)cc43)c2C1 [Compound M001276, 8-[7-(difluoromethyl)-6-(1-methylpyrazol-4-yl)-3,4-dihydro-2H-quinolin-1-yl]-6-(1-hydroxypiperidin-4-yl)-N-methyl-3,4-dihydro-1H-isoquinoline-2-carboxamide]
–	> 1000	CNC(=O)N1CCc2cc(C3CCN(CCO)C(=O)C3)cc(N3CCCc4cc(-c5cnn(C)c5)c(C(F)F)cc43)c2C1 (centres unmarked) [Compound M001248]
–	> 1000	CNC(=O)N1CCc2cc(C3CCN(CCF)C(=O)C3)cc(N3CCCc4cc(-c5cnn(C)c5)c(C(F)F)cc43)c2C1 (centres unmarked) [Compound M001251]
–	> 1000	CC(=O)N1Cc2cc([C@H]3CC[C@H](N(C)C)CC3)cc(N3CCCc4cc(-c5cnn(C)c5)c(C(F)F)cc43)c2C1 [Compound M001312]
–	> 1000	CNC(=O)N1CCc2cc(C3CCC(=O)N(CC(C)O)C3)cc(N3CCCc4cc(-c5cnn(C)c5)c(C(F)F)cc43)c2C1 (centres unmarked) [Compound M001223]
–	< 1000	CC(=O)N[C@H]1CC[C@@H](c2cc3c(c(N4CCCc5cc(-c6cnn(C)c6)c(C(F)F)cc54)c2)CN(C(C)=O)C3)CC1 [Compound M001308]
–	> 1000	CNC(=O)N1CCc2cc(C3CCN(S(C)(=O)=O)CC3)cc(N3CCCc4cc(-c5cnn(C)c5)c(C(F)F)cc43)c2C1 [Compound M001306]
–	> 1000	CNC(=O)N1CCc2cc([C@H]3CC[C@H](NC(C)=O)CC3)cc(N3CCCc4cc(-c5cnn(C)c5)c(C(F)F)cc43)c2C1 [Compound M001317]
–	> 1000	COC(=O)N1CCc2cc(C3CCC(OC)CC3)cc(N3CCCc4cc(-c5cnn(C)c5)c(C(F)F)cc43)c2C1 (centres unmarked) [Compound M001271]
–	> 1000	CC(=O)N1Cc2cc([C@H]3CC[C@@H](N(C)C)CC3)cc(N3CCCc4cc(-c5cnn(C)c5)c(C(F)F)cc43)c2C1 [Compound M001303]
–	> 1000	CN[C@H]1CC[C@H](c2cc3c(c(N4CCCc5cc(-c6cnn(C)c6)c(C(F)F)cc54)c2)CN(C(C)=O)C3)CC1 [Compound M001311]
–	> 1000	COC(=O)N1CCc2cc(C3CCOCC3)cc(N3CCCc4cc(-c5cnn(C)c5)c(C(F)F)cc43)c2C1 [Compound M001270]
